Data as given in the NIST ThermoML archive (doi:10.1021/je0501991).
± gives the expanded uncertainty stated by the source.

What was measured:
[1] = refractive index (Na D-line) (dimensionless); xn = mol fraction of the nth substance listed; conditions: 308.15 K, 101.33 kPa, Liquid, Standard Abbe refractometry
[2] = molar heat capacity at constant pressure; xn = mol fraction of the nth substance listed; conditions: 101.33 kPa, Liquid
[3] = excess molar enthalpy (molar enthalpy of mixing); xn = mol fraction of the nth substance listed; conditions: 308.15 K, 101.33 kPa, Liquid
[4] = xn = mol fraction of the nth substance listed; conditions: 308.15 K, 101.33 kPa, Liquid

OCc1ccccc1 [benzenemethanol] + C[S+](C)[O-]
Conditions	excess molar enthalpy [kJ/mol]	mass density [kg/m3]	refractive index	viscosity [mPa·s]
[1], x2 = 0.0641	–	–	1.5328 ± 0.0007	–
[1], x2 = 0.1255	–	–	1.5297 ± 0.0007	–
[1], x2 = 0.2283	–	–	1.5252 ± 0.0007	–
[1], x2 = 0.3275	–	–	1.5204 ± 0.0007	–
[1], x2 = 0.4152	–	–	1.5157 ± 0.0007	–
[1], x2 = 0.5117	–	–	1.5099 ± 0.0007	–
[1], x2 = 0.5942	–	–	1.5048 ± 0.0007	–
[1], x2 = 0.6646	–	–	1.4998 ± 0.0007	–
[1], x2 = 0.7406	–	–	1.4946 ± 0.0007	–
[1], x2 = 0.8125	–	–	1.4891 ± 0.0007	–
[1], x2 = 0.8745	–	–	1.4838 ± 0.0007	–
[1], x2 = 0.9388	–	–	1.4785 ± 0.0007	–
[3], x2 = 0.0571	-0.476 ± 0.009	–	–	–
[3], x2 = 0.108	-0.811 ± 0.015	–	–	–
[3], x2 = 0.1537	-1.04 ± 0.019	–	–	–
[3], x2 = 0.195	-1.22 ± 0.022	–	–	–
[3], x2 = 0.2666	-1.39 ± 0.025	–	–	–
[3], x2 = 0.3264	-1.5 ± 0.027	–	–	–
[3], x2 = 0.4209	-1.5 ± 0.027	–	–	–
[3], x2 = 0.492	-1.42 ± 0.026	–	–	–
[3], x2 = 0.5924	-1.27 ± 0.023	–	–	–
[3], x2 = 0.6856	-1.03 ± 0.019	–	–	–
[3], x2 = 0.744	-0.841 ± 0.016	–	–	–
[3], x2 = 0.8135	-0.613 ± 0.012	–	–	–
[3], x2 = 0.8532	-0.495 ± 0.01	–	–	–
[3], x2 = 0.8971	-0.345 ± 0.007	–	–	–
[3], x2 = 0.9208	-0.257 ± 0.006	–	–	–
[3], x2 = 0.9457	-0.164 ± 0.004	–	–	–
[3], x2 = 0.9721	-0.088 ± 0.003	–	–	–
[4], x2 = 0.0641	–	1037.17 ± 0.26	–	3.957 ± 0.06
[4], x2 = 0.1255	–	1040.32 ± 0.27	–	3.787 ± 0.057
[4], x2 = 0.2283	–	1045.4 ± 0.27	–	3.49 ± 0.053
[4], x2 = 0.3275	–	1050.05 ± 0.28	–	3.201 ± 0.048
[4], x2 = 0.4152	–	1054.07 ± 0.29	–	2.949 ± 0.044
[4], x2 = 0.5117	–	1058.52 ± 0.3	–	2.686 ± 0.04
[4], x2 = 0.5942	–	1062.41 ± 0.3	–	2.477 ± 0.037
[4], x2 = 0.6646	–	1065.87 ± 0.31	–	2.306 ± 0.035
[4], x2 = 0.7406	–	1069.8 ± 0.31	–	2.134 ± 0.032
[4], x2 = 0.8125	–	1073.74 ± 0.32	–	1.988 ± 0.03
[4], x2 = 0.8745	–	1077.57 ± 0.33	–	1.858 ± 0.028
[4], x2 = 0.9388	–	1081.3 ± 0.33	–	1.748 ± 0.026

molar heat capacity at constant pressure [J/K/mol], [2]
Conditions	298.15 K	308.15 K	318.15 K
x2 = 0	200.4 ± 16	203.9 ± 16	207.2 ± 17
x2 = 0.08706	196.4 ± 16	201.5 ± 16	206.4 ± 16
x2 = 0.1439	189.3 ± 15	193.7 ± 16	198.6 ± 16
x2 = 0.2708	168.3 ± 14	172.9 ± 14	177 ± 14
x2 = 0.3817	167 ± 13	170.3 ± 14	174.1 ± 14
x2 = 0.4964	162.3 ± 13	164.4 ± 13	166.7 ± 13
x2 = 0.5422	160.1 ± 13	162.4 ± 13	164.9 ± 13
x2 = 0.5966	159.3 ± 13	161.5 ± 13	163.6 ± 13
x2 = 0.6863	146.6 ± 12	149.1 ± 12	150.8 ± 12
x2 = 0.7711	146.9 ± 12	148.1 ± 12	149.8 ± 12
x2 = 0.8577	149.7 ± 12	151.2 ± 12	152.5 ± 12
x2 = 0.9237	149 ± 12	150.2 ± 12	151.4 ± 12
x2 = 0.9508	146.4 ± 12	147.6 ± 12	148.8 ± 12
